# Measured values: ChEMBL document CHEMBL3392985, “Dithiocarbamate-thiourea hybrids useful as vaginal microbicides also show reverse transcriptase inhibition: design, synthesis, docking and pharmacokinetic studies” (Bioorg Med Chem Lett, 2015)
# How the values were obtained:
# [1] = Toxicity against Lactobacillus acidophilus at 200 ug/ml after 24 hrs
# [2] = Spermicidal activity against human sperm by microscopic analysis; format: functional
# HeLa = test: Cytotoxicity against human HeLa cells assessed as cell viability at 200 ug/ml after 24 hrs by lactate dehydrogenase release assay; format: cell-based
# [3] = biological target: Human immunodeficiency virus type 1 reverse transcriptase (Human immunodeficiency virus 1) (UniProt Q72547); test: Inhibition of HIV-1 reverse transcriptase using digoxigenin/biotin-labeled dUTP as substrate at 100 ug/ml incubated for 1 hr followed by compound washout measured after 1 hr by non-radioactive ELISA relative to control
# Trichomonas vaginalis = test: Antimicrobial activity against Trichomonas vaginalis after 3 to 48 hrs by trypan blue exclusion assay; format: functional
# Homo sapiens = organism: Homo sapiens; test: Ratio of nonoxynol-9 MEC to compound MEC for human sperm; format: functional
# [4] = Stability of the compound in simulated vaginal fluid at 100 ng/ml at pH 2 up to 1 hr by LC/MS/MS analysis; format: ADME; details: buffer, pH 2, 1 h
# [5] = Terminal half life in rabbit administered intravaginally after 1 hr; format: ADME, organism-based, Oryctolagus cuniculus; details: in vivo, read-out: beta t1/2 (converted)
# [6] = Cmax in rabbit administered administered intravaginally after 1 hr; format: ADME, organism-based, Oryctolagus cuniculus; details: in vivo
Compound,inhibition [3] [%],MIC (Trichomonas vaginalis) [µg/mL],Stability [4],Activity [1],MEC [2] [%],Activity (HeLa),Ratio (Homo sapiens),half-life [5] [h],Cmax [6] [ng/mL]
CCCSC(=S)N1CCN(C(=S)NC(=O)c2ccccc2)CC1,31.4,62.5,,Non-toxic,0.025,Non-toxic,2,,
CCCCSC(=S)N1CCN(C(=S)Nc2cccnc2)CC1,14.9,250,,,>2,,,,
CCCSC(=S)N1CCN(C(=S)Nc2cccnc2)CC1,35.4,125,,,0.5,,,,
S=C(Nc1cccnc1)N1CCN(C(=S)SCc2ccccc2)CC1,25.8,> 500,,,2,,,,
CCCCCCCCSC(=S)N1CCN(C(=S)Nc2ccccc2)CC1,24,125,,,1,,,,
CCCSC(=S)N1CCN(C(=S)NCCc2ccccc2)CC1,28.4,250,,,>2,,,,
CCCCCCCCSC(=S)N1CCN(C(=S)NC(=O)c2ccccc2)CC1,41.3,15.6,Stable,Non-toxic,0.025,Non-toxic,2,,
S=C(NCc1ccccc1)N1CCN(C(=S)SCc2ccccc2)CC1,9.11,125,,,>2,,,,
CCCCCCSC(=S)N1CCN(C(=S)Nc2cccnc2)CC1,26.1,125,,Non-toxic,0.05,Non-toxic,,,
CCCSC(=S)N1CCN(C(=S)Nc2ccccc2)CC1,21.5,500,,,>2,,,,
S=C(NCCc1ccccc1)N1CCN(C(=S)SCc2ccccc2)CC1,11.8,62.5,,,>2,,,,
CCCCCCCCSC(=S)N1CCN(C(=S)NCCc2ccccc2)CC1,15.7,250,,,>2,,,,
CCCCSC(=S)N1CCN(C(=S)NCCc2ccccc2)CC1,13.5,250,,,>2,,,,
CCCCCCCCCc1ccc(OCCOCCOCCOCCOCCOCCOCCOCCOCCO)cc1 [NONOXYNOL 9],,20,,,0.05,,,1.45,4.87

# More lines, main results first:
inhibition [3] [%],MIC (Trichomonas vaginalis) [µg/mL],Stability [4],Compound,Activity [1],MEC [2] [%],Activity (HeLa),Ratio (Homo sapiens),half-life [5] [h],Cmax [6] [ng/mL]
44.7,62.5,,CCCCCCCCSC(=S)N1CCN(C(=S)Nc2cccnc2)CC1,,2,,,,
36.5,250,,CCCCCCCCSC(=S)N1CCN(C(=S)NCc2ccccc2)CC1,,1,,,,
14.8,250,,CCCCCCSC(=S)N1CCN(C(=S)NCCc2ccccc2)CC1,,1,,,,
12.3,62.5,,O=C(NC(=S)N1CCN(C(=S)SCc2ccccc2)CC1)c1ccccc1,,1,,,,
1.9,> 500,,CCCCCCSC(=S)N1CCN(C(=S)Nc2ccccc2)CC1,,>2,,,,
14.2,500,,CCCCSC(=S)N1CCN(C(=S)NCc2ccccc2)CC1,,>2,,,,
21.9,250,,S=C(Nc1ccccc1)N1CCN(C(=S)SCc2ccccc2)CC1,,>2,,,,
20.6,15.6,,CCCSC(=S)N1CCN(C(=S)NCc2ccccc2)CC1,,1,,,,
27.8,125,,CCCCSC(=S)N1CCN(C(=S)NC(=O)c2ccccc2)CC1,,1,,,,
27.3,250,,CCCCCCSC(=S)N1CCN(C(=S)NCc2ccccc2)CC1,,>2,,,,
30.9,125,,CCCCSC(=S)N1CCN(C(=S)Nc2ccccc2)CC1,,>2,,,,
23.2,7.78,,CCCCCCSC(=S)N1CCN(C(=S)NC(=O)c2ccccc2)CC1,Non-toxic,0.05,Non-toxic,,,
